Marks after values point to notes of the source that are not given here.
Assays:
[1] = tested on: Salmonella typhimurium TA100; assay: Mutagenicity (Ames test); type: cell-based; details: for Number of colonies: ± SD
Protocol: (§1) Two reference strains of Salmonella Typhimurium TA98 and Salmonella Typhimurium TA100, deficient in histidine synthesis, were used for this study according to the method proposed by Ames et al. with modifications. […] The mixture was mixed and poured onto a Davis minimal medium plate. The mixture without the test compound was used as a negative control. The positive control was a mixture of bacterial culture, biotin-histidine solution, and sodium azide (at a concentration of 15 μg/mL for strain TA100) or acriflavine (at a concentration of 100 μg/mL for strain TA98). Plates were incubated for 48 h at 37 °C, and then colonies were counted. The mutagenicity ratio (MR), the ratio of the number of revertants grown in the presence of the test compound to the number of spontaneously occurring revertants (negative control), was calculated. A mutagenic ratio equal to or greater than 1.7 indicates the mutagenic potential of the tested compounds. The study was performed in three times.

[2] = tested on: Salmonella typhimurium TA98; assay: Mutagenicity (Ames test); type: cell-based; details: for Number of colonies: ± SD
Protocol: as §1

S. aureus MRSA R98 = assay: MIC/MBC microdilution; type: cell-based, Staphylococcus aureus; details: for Minimal bactericidal concentration (*MBC): 99.9% reduction; for Minimal inhibitory concentration (MIC): 24 h, 37 °C, >90% growth inhibition
Protocol: (§2) The minimum inhibitory concentration (MIC) of the tested monomeric QAS was performed using the microdilution method according to CLSI recommendation (M27-A3). Concentrations from 10 to 1280 µM were analyzed. Strains were incubated with or without compounds (growth control) for 24 h at 37 °C. Three independent replicates were performed. The MIC value was determined spectrophotometrically and the concentration that inhibited more than 90% of growth was determined. Optical density was measured at λ = 590 nm using a 96-well microplate reader (Bio-Rad Universal Hood II).
(§3) To determine the minimum bactericidal concentration (MBC), 10 µL of bacterial suspension incubated with monomeric QAS (MIC concentration and two times higher) was transferred to plates with LB (1% tryptone, 1% yeast extract, 0.5% NaCl) medium. […] The concentration that reduced 99.9% of microbial growth was determined as MBC[54].

S. aureus ATCC 6538 = assay: MIC/MBC microdilution; type: cell-based, Staphylococcus aureus; details: S. aureus ATCC 6538
Protocol: as §2, §3

S. epidermidis B374 [3] = assay: Adhesion to stainless steel; type: cell-based, Staphylococcus epidermidis
[4] = Critical micelle concentration by conductometric measurements; type: physicochemical; details: aqueous solution, 25 °C
Protocol: Values of critical micelle concentrations (CMC) of cationic surfactants were measured conductrometrically. N5721 conductometer (Tel-Eko Projekt sp z o.o., Poland), equipped with N5981 probe, was calibrated using 0.1 M, 0.01 M and 0.001 M KCl aqueous solutions (conductivities equal to 1.287 S/m, 0.141 S/m and 0.0147 S/m, respectively) and used without temperature compensation mode (constant temperature 25 °C was kept during all calibration procedures and measurements). Values of specific conductivities of at least 15 different concentrations for each surfactant were measured and plotted versus concentration; the discontinuity point was used to determine critical micelle concentration.

E. coli ATCC 11229 = assay: MIC/MBC microdilution; type: cell-based, Escherichia coli; details: E. coli ATCC 11229; for Minimal bactericidal concentration (*MBC): 99.9% reduction; for Minimal inhibitory concentration (MIC): 24 h, 37 °C, >90% growth inhibition
Protocol: as §2, §3

E. coli H64 = assay: MIC/MBC microdilution; type: cell-based, Escherichia coli; details: E. coli H64; for Minimal bactericidal concentration (*MBC): 99.9% reduction
Protocol: as §2, §3

P. aeruginosa PAO1 [5] = assay: Adhesion to glass; type: cell-based, Pseudomonas aeruginosa; details: concentration not given
P. aeruginosa PAO1 [6] = assay: MIC/MBC microdilution; type: cell-based, Pseudomonas aeruginosa; details: for Minimal bactericidal concentration (*MBC): 99.9% reduction; for Minimal inhibitory concentration (MIC): 24 h, 37 °C, >90% growth inhibition
Protocol: as §2, §3

P. aeruginosa ATCC 27853 = assay: MIC/MBC microdilution; type: cell-based, Pseudomonas aeruginosa; details: P. aeruginosa ATCC 27853; for Minimal bactericidal concentration (*MBC): 99.9% reduction; for Minimal inhibitory concentration (MIC): 24 h, 37 °C, >90% growth inhibition
Protocol: as §2, §3

[7] = tested on: S. epidermidis ATCC 35984; assay: Adhesion to polystyrene plate; type: cell-based, Staphylococcus epidermidis; details: 1280 µM, range given over two strains
Protocol: (§4) Adhesion analysis to polystyrene surfaces was determined according to the method of Rodrigues et al. with modifications. Polystyrene 96-well plates were incubated with the respective compound concentrations (10–1280 µM) for 4 h at 37 °C with 100 rpm shaking. The plates were then washed with miliQ and inoculated with 100 µL of bacterial suspension (OD = 0.4–0.6). Plates were incubated for 6 h at 37 °C with 100 rpm shaking. Wells were rinsed and fixed for 20 min at 60 °C. They were then […] with 0.1% crystal violet solution for 5 min. The wells were washed with miliQ until the unfixed dye was completely eluted. The absorbance at λ = 590 nm was measured using a reader (Bio-Rad Universal Hood II). The positive control was a surface not treated with QAS. Three independent trials were performed.

S. epidermidis B374 [8] = assay: Adhesion to polystyrene plate; type: cell-based, Staphylococcus epidermidis
Protocol: as §4

S. epidermidis SI8 = assay: MIC/MBC microdilution; type: cell-based, Staphylococcus epidermidis
Protocol: as §2, §3

[9] = tested on: S. epidermidis ATCC 35984; assay: MIC/MBC microdilution; type: cell-based, Staphylococcus epidermidis
Protocol: as §2, §3

S. epidermidis B374 [10] = assay: MIC/MBC microdilution; type: cell-based, Staphylococcus epidermidis; details: S. epidermidis B374
Protocol: as §2, §3

[11] = 99.9% reduction, read-out: Minimal bactericidal concentration (*MBC)
[12] = 24 h, 37 °C, >90% growth inhibition, read-out: Minimal inhibitory concentration (MIC)
[13] = 24 h, 37 °C, >90% growth inhibition

Row | SMILES | Mutagenicity index ([1]; ¼ MIC) | Number of colonies ([1]; ¼ MIC) | Mutagenicity index ([1]; ½ MIC) | Number of colonies ([1]; ½ MIC) | Mutagenicity index ([2]; ¼ MIC) | Number of colonies ([2]; ¼ MIC) | Mutagenicity index ([2]; ½ MIC) | Number of colonies ([2]; ½ MIC) | Minimal bactericidal concentration (*MBC) (S. aureus MRSA R98) | Minimal inhibitory concentration (MIC) (S. aureus MRSA R98) | CMC [4] | Minimal bactericidal concentration (*MBC) (E. coli ATCC 11229) | Minimal inhibitory concentration (MIC) (E. coli ATCC 11229) | Minimal bactericidal concentration (*MBC) (E. coli H64) | Minimal inhibitory concentration (MIC) (E. coli H64; [13]) | reduction of adhesion to glass (P. aeruginosa PAO1 [5]) | Minimal bactericidal concentration (*MBC) (P. aeruginosa PAO1 [6]) | Minimal inhibitory concentration (MIC) (P. aeruginosa PAO1 [6]) | Minimal bactericidal concentration (*MBC) (P. aeruginosa ATCC 27853) | Minimal inhibitory concentration (MIC) (P. aeruginosa ATCC 27853) | further results
1 | CCCCCCCCCCCCN(C)CCC[N+](C)(C)C.COC(=O)[O-] [MeC12, [(3-dodecyilomethyloamine)propyl] trimethylammonium methylcarbonate] | 0.74 | 208 ± 17 | 0.94 | 264 ± 11.3 | 0.75 | 17 ± 3.6 | 0.92 | 21 ± 3.6 | 640 *640 µM | 640 *640 µM | 0.014 mol/L | 640 *640 µM | 640 *640 µM | 640 *640 µM | 640 *640 µM | approximately 20% | > 1280 * > 1280 µM | > 1280 * > 1280 µM | > 1280 * > 1280 µM | > 1280 * > 1280 µM | MBC (S. aureus ATCC 6538; [11]): 640 µM; MIC (S. aureus ATCC 6538; [12]): 320 µM; inhibition of adhesion to stainless steel (S. epidermidis B374 [3]; 1280 µM, ranges given over several strains): 69–88%; reduced adhesion to polystyrene [7]: 25–46%; reduced adhesion to polystyrene (S. epidermidis B374 [8]; 1280 µM): 25–46%; MBC (S. epidermidis SI8; [11]): 640 µM; MIC (S. epidermidis SI8; [12]): 320 µM; MBC [9, 11]: 640 µM; MIC [9, 12]: 320 µM
2 | CCCCCCCCCCCCCCCCN(C)CCC[N+](C)(C)C.COC(=O)[O-] [MeC16, [(3-hexadecyilomethyloamine)propyl] trimethylammonium methylcarbonate] | 1.09 | 305 ± 8.7 | 1.09 | 306.7 ± 11.5 | 0.39 | 9 ± 2 | 0.19 | 4.3 ± 3.1 | 40 *40 µM | 40 *40 µM | 0.0012 mol/L | 320 *320 µM | 320 *320 µM | 80 *80 µM | 80 *80 µM | approximately 20% | > 1280 * > 1280 µM | > 1280 * > 1280 µM | > 1280 * > 1280 µM | > 1280 * > 1280 µM | Minimal bactericidal concentration (*MBC) (S. aureus ATCC 6538; 99.9% reduction): 10 *10 µM; Minimal inhibitory concentration (MIC) (S. aureus ATCC 6538; [13]): 10 *10 µM; inhibition of adhesion to stainless steel (S. epidermidis B374 [3]; concentration not given, range given over three strains): 69–83%; MIC (E. coli H64; [12]): 80 µM; reduction in adhesion to polystyrene (S. epidermidis B374 [8]; 320 µM): 77%; Minimal bactericidal concentration (*MBC) (S. epidermidis SI8; 99.9% reduction): 10 *10 µM; Minimal inhibitory concentration (MIC) (S. epidermidis SI8; [13]): 10 *10 µM; Minimal bactericidal concentration (*MBC) ([9]; 99.9% reduction): 40 *40 µM; Minimal inhibitory concentration (MIC) [9, 13]: 40 *40 µM; MBC (S. epidermidis B374 [10]; [11]): 160 µM; MIC (S. epidermidis B374 [10]; [12]): 80 µM
